Data: patent US7695948B2, “Antibodies that bind TNF-α converting enzyme” (Immunex Corporation, priority 1995, dated 2010)

Target: T1, TACE (Homo sapiens, UniProt P78536)
T1 construct: The TACE was isolated and purified from the membranes of the human monocytic cell line, THP-1; endogenous in cells; host or cells: THP-1 human monocytic cell line (ATCC TIB 202), stimulated to produce TNF-α; Enzyme was solubilised from plasma membranes and purified by chromatography
Assay: TACE activity assay (cleavage of TNF-α peptide substrate, HPLC)
Type: biochemical
Conditions: dithiothreitol included in plasma membrane isolation from THP-1 cells
Method: As further described in Example 1, infra, a quantitative assay for TACE also may be used which assay involves incubating the peptide substrate, at about 1 mM, with TACE at 37° C. for a fixed period of time; stopping the reaction by the addition of an acid or a metal chelator; and determining the extent of cleavage by HPLC analysis.
This Example describes a method for purifying TACE. The TACE was isolated and purified from the membranes of the human monocytic cell line, THP-1, (ATCC no. TIB 202) that had been stimulated to produce TNF-α. THP-1 cells were chosen because they produce more TNF-α than HL-60 cells, a more commonly used human monocytic cell line. […]
This material was incubated at 37° C. for at least 4 hours with the TACE eluted from the DEAE-Sepharose, that had been treated with 1 mM N-methoxysuccinyl-Ala-Ala-Val -chloro-methylketone, 10 μg/ml leupeptin, and 1 mg/ml α1-protease inhibitor, all of which are commercially available. […] Based on this observation, a quantitative assay was established: the peptide, at 1 mM, was incubated with the enzyme at 37° C. for a fixed period of time, in the presence of 0.1 mM dichloroisocoumarin, 1 mM methoxysuccinyl-Ala-Ala-Pro-Val-chloromethyl-ketone, 10 μg/ml leupeptin, 10 μM bestatin, and 1 mg/ml α1-protease inhibitor (Sigma), all of which are commercially available. […]

T1 sequence (P78536 215-824): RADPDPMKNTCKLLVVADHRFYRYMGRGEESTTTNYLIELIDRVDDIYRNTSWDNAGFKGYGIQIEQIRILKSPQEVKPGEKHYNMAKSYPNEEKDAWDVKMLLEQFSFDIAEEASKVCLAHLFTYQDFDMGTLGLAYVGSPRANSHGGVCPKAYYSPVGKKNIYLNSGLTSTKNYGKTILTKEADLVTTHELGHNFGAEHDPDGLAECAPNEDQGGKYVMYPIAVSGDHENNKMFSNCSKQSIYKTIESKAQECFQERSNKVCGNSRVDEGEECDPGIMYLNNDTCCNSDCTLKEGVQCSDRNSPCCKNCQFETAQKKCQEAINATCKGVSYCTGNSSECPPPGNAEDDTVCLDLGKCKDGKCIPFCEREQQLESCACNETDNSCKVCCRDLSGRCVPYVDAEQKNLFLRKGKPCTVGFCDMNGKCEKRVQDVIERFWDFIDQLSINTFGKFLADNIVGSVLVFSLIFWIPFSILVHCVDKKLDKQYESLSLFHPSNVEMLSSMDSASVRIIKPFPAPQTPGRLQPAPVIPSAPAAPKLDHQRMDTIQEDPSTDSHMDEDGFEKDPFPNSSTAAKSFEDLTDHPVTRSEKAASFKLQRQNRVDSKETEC

- TACE activity: blocks TACE activity
SMILES: O[C@H](CS)[C@H](O)CS (racemic) [dithiothreitol]
